Several values for one entry are separate records, joined by “and”; a condition that tells them apart may be missing. Identical values can stand only once.
Assays:
Assay type in all cases: in vivo, human
[1] = tested on: healthy subjects; experiment: Phase 4: as Phase 3a, meperidine plus oral buspirone
Description: (§1) Five contact pads are applied to the thighs, back and abdomen of each subjects, and actively cooled. Temperatures are measured in the same manner as in Phase 1 except that the rectal temperature probe is connected to a control module and the rectal temperature signal is used by the control module to adjust inlet water temperature via a feedback control algorithm to achieve a target core body temperature of 34.5° C.
(§2) A single oral dose of acetaminophen (1000 mg), is administered within 20 minutes prior to treatment. A bolus of IV meperidine (Demerol®, 50-100 mg) is given within 5 minutes of the start of active cooling. Additional doses of meperidine are administered to maintain comfort and to prevent shivering. Active cooling and maintenance of hypothermia continues for five hours. As in the Phase 1, the subjects are actively re-warmed to a tympanic temperature of 36° C. prior to termination of the experiment. Shivering, comfort, oxyhemoglobin saturation, and arterial blood pressure are recorded as in Phase 1.
Phase 4 proceeds as described for Phase 3a, except as noted. In addition to meperidine (Demerol®), subjects are also given an oral dose of 30-60 mg buspirone.

[2] = tested on: healthy subjects; experiment: Phase 1: induced mild hypothermia by contact-pad cooling with meperidine for shivering suppression
Text: (§3) Mild hypothermia is induced and maintained in healthy subjects for up to several hours. Each volunteer is cooled using contact pads (Arctic Sun Energy Transfer Pads™, Medivance, Inc., Louisville, Colo., U.S.A.). Contact pads are applied to contact the subjects, and water at a controlled temperature is delivered to and circulated through the contact pads to effect the controlled cooling of each volunteer.
(§4) Four contact pads are applied to the thighs and chest of each subject and each subject is rapidly cooled with an objective of reducing core body temperature to 34-35° C. Core body temperatures are measured at the tympanic membrane and the rectum. Mean skin-surface temperature is determined from the weighted average of calf, thigh, chest, and upper arm skin temperatures. Thermoregulatory vasoconstriction is evaluated using forearm minus fingertip skin-temperature gradients. Temperatures are measured using Mon-a-Therm™ themocouple probes connected to Mallinckrodt Model 6510 two-channel electronic thermometers having an accuracy near 0.1° C. (Mallinckrodt Anesthesia Products, St. Louis, Mo., U.S.A.). Temperatures are recorded before cooling is started (i.e., baseline) and subsequently at 15-minute intervals.
(§5) Each of subjects 1-5 is administered a single dose of acetomiophen (1000 mg) within 20 minutes prior to treatment and is administered a bolus of intravenous (IV) meperidine (Demerol®, 25-75 mg) within 5 minutes of the start of cooling. Subjects also receive initial doses of chlorpromazine (Thorazine®12.5-25 mg, IV). Active cooling is initiated and the inlet water temperature is controlled to achieve a target tympanic temperature between 34° C. and 35° C. Additional doses of meperidine and/or chloropromazine are administered to maintain comfort and to prevent shivering. Active cooling and maintenance of hypothermia continues for up to five hours, after which subjects are actively re-warmed to a tympanic temperature of 36° C.
(§6) The presence of shivering is noted by physical examination, electromyographic artifact on continuous electrocardiography (ECG), or by subject report. Overall thermal comfort is evaluated at 15-min intervals with a 100-mm-long visual analog scale (VAS) on which 0 mm defines the worst imaginable cold, 50 mm identifies thermal neutrality, and 100 mm indicates unbearable heat. A new, unmarked scale is used for each assessment. Heart rate and oxyhemoglobin saturation are monitored using ECG and pulse oximetry; arterial blood pressure is recorded oscillometrically at 15-minute intervals.

[3] = tested on: healthy subjects; experiment: Phase 3a: contact-pad cooling to target core temperature 34.5° C. with meperidine
Text: as §3, §1, §2

[4] = tested on: healthy subjects; experiment: Phases 1 and 3a taken together: haemodynamics, comfort, respiratory compromise, nausea
Description: as §4, §5, §6, §1, §2

[5] = tested on: healthy subjects; experiment: Phase 5: as Phase 3a, meperidine plus IV ondansetron
Description: as §1, §2
Phase 5 proceeds as described for Phase 3a, except as noted. The temperature of water circulated to the contact pads is controlled to achieve a target core body temperature of 34.5° C. In addition to meperidine (Demerol®), subjects are also given an IV dose of 8 mg ondansetron (hydrochloride salt, Glaxo Wellcome).

[6] = individual subjects, meperidine
[7] = Phase 4, individual subjects, meperidine plus oral buspirone 30-60 mg
[8] = Phase 4, mean ± SD, 4 subjects, meperidine plus buspirone
[9] = Phase 5, individual subjects, meperidine plus IV ondansetron 8 mg
[10] = Phase 5, mean ± SD, 4 subjects, meperidine plus ondansetron

## O=C1CC2(CCCC2)CC(=O)N1CCCCN1CCN(c2ncccn2)CC1 [buspirone]
[1]; in vivo
  Effect on incidence of nausea: did not reduce the incidence of nausea

## CCOC(=O)C1(c2ccccc2)CCN(C)CC1 [meperidine]
[2]; Phase 1
  Attainment of mild hypothermia: attained in all subjects
[2]; Phase 1, individual subjects, given as needed to maintain comfort and prevent shivering, up to five hours
  Total Meperidine Dose: 275 mg and 375 mg and 475 mg and 75 mg and 200 mg
[2]; Phase 1, individual subjects, meperidine
  Nausea or Vomiting During Treatment: Pruritis and None (4×)
[2]; Phase 1, individual subjects, meperidine for shivering suppression
  Cooling rate to 35° C.: 1.4 ° C./hr and 1.0 ° C./hr and 1.5 ° C./hr and 2.6 ° C./hr and 1.2 ° C./hr
[2]; Phase 1, individual subjects, tympanic temperature, IV meperidine 25-75 mg bolus plus additional doses, acetaminophen 1000 mg, chlorpromazine in subjects 1 and 2
  Time to 35° C.: 81 min and 105 min and 78 min and 41 min and 82 min
[2]; Phase 1, mean ± SD, 5 subjects
  Mean cooling rate to 35° C.: 1.5±0.6 ° C./hr and 1.5 ± .6 ° C./hr
  Mean time to reach a tympanic temperature of 35° C.: 77+23 min and 77 ± 23 min
  Mean total dosage of meperidine: 280 ± 155 mg and 280 mg
[3]; individual subjects, as needed to maintain comfort and prevent shivering, five hours
  Total Meperidine Dose: 400 mg and 500 mg and 350 mg (2×) and 250 mg
[3]; [6]
  Cooling rate to 35° C.: 1.9 ° C./hr and .9 ° C./hr and 1.2 ° C./hr and 1.7 ° C./hr and 1.4 ° C./hr
  Nausea or Vomiting During Treatment: Nausea end (2×) and None and Nausea early, and Nausea, and vomiting mid
[3]; individual subjects, tympanic temperature, IV meperidine 50-100 mg bolus plus additional doses, acetaminophen 1000 mg
  Time to 35° C.: 64 min and 180 min and 95 min and 56 min and 53 min
[3]; mean ± SD, 5 subjects
  Mean cooling rate to 35° C.: 1.4±0.4 ° C./hr and 1.4 ± .4 ° C./hr
  Mean time to reach a tympanic temperature of 35° C.: 90 ± 53 min
  Mean total dosage of meperidine: 370 ± 91 mg and 370 mg
[4]; 180 min timepoint, baseline 122±13, p=0.042
  Systolic blood pressure: 140±20 mm Hg
[4]; Phases 1 and 3a
  Respiratory compromise: no respiratory compromise is observed
[4]; Phases 1 and 3a, all cases in Phase 3a
  Subjects in whom nausea is observed: 30%
[4]; all subjects, during cooling
  Change in blood oxygenation compared with baseline: no statistically significant change
  Change in diastolic blood pressure compared with baseline: no statistically significant change
  Change in heart rate compared with baseline: no statistically significant change
[1]; [7]
  Cooling rate to 35° C.: 1.1 ° C./hr (2×) and 1.9 ° C./hr and 0.8 ° C./hr
  Nausea or Vomiting During Treatment: Nausea early, and Vomiting end and None and Nausea mid and Nausea end
  Time to 35° C.: 105 min and 95 min and 63 min and 158 min
[1]; Phase 4, individual subjects, with oral buspirone 30-60 mg
  Total Meperidine Dose: 250 mg (3×) and 400 mg
[1]; [8]
  Mean cooling rate to 35° C.: 1.2 ± .5 ° C./hr
  Mean time to 35° C.: 105 ± 39 min
[1]; Phase 4, mean ± SD, 4 subjects, with buspirone
  Mean total meperidine dose: 288 ± 75 mg
[5]; Phase 5
  Attainment of mild hypothermia: attained in all subjects
[5]; [9]
  Cooling rate to 35° C.: 1.5 ° C./hr and 1.4 ° C./hr and 1.6 ° C./hr and 1.9 ° C./hr
  Nausea or Vomiting During Treatment: None (2×) and Nausea post and Nausea and vomiting
  Time to 35° C.: 80 min and 58 min and 88 min and 60 min
[5]; Phase 5, individual subjects, with IV ondansetron 8 mg
  Total Meperidine Dose: 275 mg and 250 mg and 325 mg and 375 mg
[5]; [10]
  Mean cooling rate to 35° C.: 1.6 ° C./hr and 1.6 ± .2 ° C./hr
  Mean time to reach a tympanic temperature of 35.0° C.: 72 ± 15 min
[5]; Phase 5, mean ± SD, 4 subjects, with ondansetron
  Mean total dosage of meperidine: 306 ± 55 mg
[5]; Phase 5, one of five enrolled, caused a facial rash
  Withdrawal of a subject for adverse reaction to meperidine: mild allergic reaction

## Cc1nccn1CC1CCc2c(c3ccccc3n2C)C1=O (stereo not drawn) [ondansetron]
[5]; p=0.26, t-test, ondansetron 8 mg IV
  Meperidine administration in Phase 5 relative to Phase 3a: trend toward less meperidine administration

Reference: patent US20040087606A1, “Shivering suppression during cooling to lower body temperature” (priority 2002, published 2004)
